From US20200181597A1, “Composition and Application of Arginine-depleting Agents for Cancer, Obesity, Metabolic Disorders, and Related Complications and Comorbidities” (THE HONG KONG POLYTECHNIC UNIVERSITY, priority 2018, published 2020)
Values belong to the molecule of their own block, whether it stands above or below them.

How the values were obtained:
LOVO = assay: cells; details: Homo sapiens, LoVo, 72 h
Method: (§1) The in vitro efficacy of ABD and rhArg fusion protein was tested on human colon cancer cell lines. Human colon cancer cell lines (HCT116, LOVO and HT29) were seeded in 96-well plate at densities of 5×10^3 cells/well. After 1 day of incubation, the culture medium was replaced with medium containing different concentrations (2, 0.4, 0.08, 0.016 and 0.0032 U/ml) of N-ABD094-rhArg (SEQ ID NO: 50). MTT assay was conducted at Day 3 [3 days after N-ABD094-rhArg (SEQ ID NO: 50) treatment] to determine the IC50 values. The culture medium was replaced with MTT solution (1 mg/ml) (Invitrogen) and incubated at 37° C. for 4 h. After incubation, MTT solution was replaced with dimethyl sulfoxide (DMSO), and the absorbance at 570 nm was measured with a reference of 650 nm. The cell viability was determined by dividing the absorbance of N-ABD094-rhArg-treated cells by the average absorbance of untreated cells. […] Three independent sets of experiments (n=3) were performed for each cell line.
(§2) MTT assay was conducted at Day 3. Three independent sets of experiments (n=3) were performed for each cell line.
(§3) For drug-combination assay, a non-constant ratio analysis was performed (Hastak et al., 2010, Cancer Res. 70(20):7970-7980). Colon cancer cells were seeded and after 1 day of incubation, the culture medium was replaced with medium containing different concentrations of N-ABD094-rhArg (SEQ ID NO: 50) (2, 0.4, 0.08, 0.016, 0.0032 U/ml) combined with fixed amount of CQ according to its IC50. MTT assay was conducted at Day 3. The combination index (CI) of combined N-ABD094-rhArg (SEQ ID NO: 50) and CQ treatment was analyzed by software CalcuSyn version 2.1. Three independent sets of experiments (n=3) were performed for each cell line.

HCT116 [1] = assay: cells; details: Homo sapiens, HCT-116, 72 h
Method: as §1, §2, §3

HT29 = assay: cells; details: Homo sapiens, HT-29, 72 h
Method: as §1, §2, §3

MCF-7 cancer cells = assay: cells; type: cell-based, human; details: Homo sapiens
Method: (§4) Breast cancer cell lines (e.g. human MCF-7 and MDA-MB-231 cells) were used in these studies. Cancer cells (5×10^3 cells) were seeded in 96-well plates (TPP) with […] complete medium. The plates were incubated in incubator overnight and the cells were allowed to adhere to the plates. […] Each dosage was triplicated in 3 wells to obtain the average change of cell viability. […] The plates were put back into the incubator and further incubated for 4 h. To dissolve the insoluble compound, formazan, formed by MTT, 100 μl of 10% SDS in 0.01 M HCl was added. The plates were incubated at 37° C. overnight. The color change was measured by spectrophotometer at 570 nm. Control set up (without any drug) was used as base to calculate percentage of cell viability which was used to plot the dose response curve by the software Prism 6.0 (GraphPad) to find the IC50 values. […] CalcuSyn software (Biosoft) was used for calculating the CI values.

[2] = test system: MDA-MB-231 breast cancer cells; assay: cells; type: cell-based, human; details: Homo sapiens
Method: as §4

HCT116 [3] = assay: MTT cytotoxicity of ADI, BCA, ADC; type: cell-based, human; details: HCT116, 72 h
Method: (§5) For cell proliferation assay, cancer cells (5×10^3) in a volume of 100 μL of growth medium were seeded to each well of a 96-well plate and incubated for 24 h. The culture medium was replenished by arginine free medium (AFM) supplemented with different concentrations of arginine, fresh medium containing various concentrations of different arginine depleting enzymes as well as using these enzymes in combination with citrulline. The plate was incubated for an additional 1-3 days at 37° C. in an incubator containing a humidified atmosphere of 95% air and 5% CO2.
(§6) Quantitative cell proliferation assays were performed using MTT (3-[4,5-dimethylthiazol-2-yl]-2,5-diphenyl tetrazolium bromide) assays as widely described elsewhere. The amount of arginine depleting enzyme required to kill 50% of the cells in a culture was defined as IC50.
(§7) The cytotoxicities of arginine deiminase (ADI), bacterial arginase (BCA) and arginine decarboxylase (ADC) were determined in a comparative study in five tumor cell lines: A375, HeLa, BxPC-3, PANC-1, and HCT116.
(§8) Table 6. IC50 and maximum cytotoxicity of ADI, BCA and ADC on five human cancer cell lines. Cells were treated for 72 h before MTT analysis. Data are the mean of three experiments performed in triplicate. IC50 value is defined as the amount of enzyme needed to achieve 50% inhibition of cell viability. Maximum cytotoxicity is expressed as the maximum percentage of nonviable cells achieved by each enzyme. ADI-resistant cells are defined as cells of which more than 50% survive under the maximum dose of ADI tested.

BxPC-3 = assay: MTT cytotoxicity of ADI, BCA, ADC; type: cell-based, human; details: BxPC-3, 72 h
Method: as §5, §6, §7, §8

PANC-1 = assay: MTT cytotoxicity of ADI, BCA, ADC; type: cell-based, human; details: PANC-1, 72 h
Method: as §5, §6, §7, §8

A375 = assay: MTT cytotoxicity of ADI, BCA, ADC; type: cell-based, human; details: A375, 72 h
Method: as §5, §6, §7, §8

HeLa = assay: MTT cytotoxicity of ADI, BCA, ADC; type: cell-based, human; details: 72 h
Method: as §5, §6, §7, §8

[4] = target: human serum albumin (HSA) (human, UniProt P02768 25-609); assay: non-denaturing PAGE; 30 pmol HSA titrated with 7.5-120 pmol fusion protein
[5] = target: human serum albumin (HSA), P02768
[6] = MCF7, read-out: Mean of % Cell Viability
[7] = MDA-MB-231, 72 h, read-out: Mean of % Cell Viability

IC50 (LOVO): 15 µM | IC50 (HCT116 [1]): > 100 µM | IC50 (HT29): 71 µM | IC50 (MCF-7 cancer cells; MCF7): 67.2 µM | IC50 ([2]; MDA-MB-231): 73.4 µM
Molecule: CCN(CC)CCCC(C)Nc1ccnc2cc(Cl)ccc12 (stereo not drawn) [CQ, chloroquine]
viability at 0.16 µM (MCF-7 cancer cells; [6]): 96.3% | viability at 0.8 µM (MCF-7 cancer cells; [6]): 85.9% | viability at 4 µM (MCF-7 cancer cells; [6]): 83.3% | viability at 20 µM (MCF-7 cancer cells; [6]): 72.4% | viability at 100 µM (MCF-7 cancer cells; [6]): 40.7% | viability at 0.16 µM [2, 7]: 99% | viability at 0.8 µM [2, 7]: 98.1% | viability at 4 µM [2, 7]: 82.2% | viability at 20 µM [2, 7]: 75.2% | viability at 100 µM [2, 7]: 43.2%

B1: BCA: bacterial arginase (Bacillus caldovelox arginase) (protein, UniProt P53608 1-299, looked up)
Arginase: MKPISIIGVPMDLGQTRRGVDMGPSAMRYAGVIERLERLHYDIEDLGDIPIGKAERLHEQGDSRLRNLKAVAEANEKLAAAVDQVVQRGRFPLVLGGDHSIAIGTLAGVAKHYERLGVIWYDAHGDVNTAETSPSGNIHGMPLAASLGFGHPALTQIGGYSPKIKPEHVVLIGVRSLDEGEKKFIREKGIKIYTMHEVDRLGMTRVMEETIAYLKERTDGVHLSLDLDGLDPSDAPGVGTPVIGGLTYRESHLAMEMLAEAQIITSAEFVEVNPILDERNKTASVAVALMGSLFGEKLM
IC50 (HCT116 [3]): 0.22 µg/mL | Maximum cytotoxicity (HCT116 [3]): 81.05% | IC50 (BxPC-3): 0.44 µg/mL | Maximum cytotoxicity (BxPC-3): 84.82% | IC50 (PANC-1): 1.81 µg/mL | Maximum cytotoxicity (PANC-1): 63.01% | IC50 (A375): 0.12 µg/mL | Maximum cytotoxicity (A375): 86.92% | IC50 (HeLa): 1.25 µg/mL | Maximum cytotoxicity (HeLa): 61.14%

binding result [4]: binds
B2: N-ABD-rhArg fusion protein (SEQ ID NO: 49) (enzyme)
chain: MHHHHHHDEAVDANSLAEAKVLANRELDKYGVSDYYKNLINNAKTVEGVKALIDEILAALPSGSNNNNNNGSGGMSAKSRTIGIIGAPFSKGQPRGGVEEGPTVLRKAGLLEKLKEQECDVKDYGDLPFADIPNDSPFQIVKNPRSVGKASEQLAGKVAEVKKNGRISLVLGGDHSLAIGSISGHARVHPDLGVIWVDAHTDINTPLTTTSGNLHGQPVSFLLKELKGKIPDVPGFSWVTPCISAKDIVYIGLRDVDPGEHYILKTLGIKYFSMTEVDRLGIGKVMEETLSYLLGRKKRPIHLSFDVDGLDPSFTPATGTPVVGGLTYREGLYITEEIYKTGLLSGLDIMEVNPSLGKTPEEVTRTVNTAVAITLACFGLAREGNHKPIDYLNPPK
notes: It was expressed in E. coli ER2566 and purified on a Ni-IDA column

B3: BCA-6xHis-ABD fusion protein BHA (SEQ ID NO: 75) (protein)
chain: MKPISIIGVPMDLGQTRRGPDMGPSAMRYAGVIERLERLHYDIEDLGDIPIGKAERLHEQGDSRLRNLKAVAEANEKLAAAVDQVVQRGRFPLVLGGDHSIAIGTLAGVAKHYERLGVIWYDAHGDVNTAETSPSGNIHGMPLAASLGFGHPALTQIGGYCPKIKPEHVVLIGVRSLDEGEKKFIREKGIKIYTMHEVDRLGMTRVMEETIAYLKERTDGVHLSLDLDGLDPSDAPGVGTPVIGGLTYRESHLAMEMLAEAQIITSAEFVEVNPILDERNKTASVAVALMGSLFGEKLMHHHHHHAQHDEAVDANSLAEAKVLANRELDKYGVSDYYKNLINNAKTVEGVKALIDEILAALP
specific activity (arginine catabolic activity, DAMO assay) at BHA:HSA mole ratios 1:10, 1:5, 1:1, 5:1 and 10:1 [5]: approximately 200 U/mg
